Laboratory results reported in PubChem BioAssay AID463199 (Broad Institute, 2010).
The source made the active and inactive calls.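 The calls were made as follows: active = AC50, the dose giving half-maximal effect, exceeds a fixed cutoff for a compound that rescues yeast growth under heat; inactive = the rest, inconclusive results apart.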

Tested on: S. cerevisiae Burl-1 ts mutant growth, BacTiter-Glo, 38.5C 24 h
Test: growth induction of Burl-1 ts yeast mutant, dose response, counter-screen for SUMOylation pathway inhibitor project, whole organism, S. cerevisiae, luminescence (AID 463199)

Row | Structure (SMILES) | AC50
1 | COc1ccc2cc(C#N)c(Nc3cccc(F)c3)nc2c1 | > 42 µM (inactive)
2 | N#C/C(=C/c1ccc(N2CCCCC2)o1)C(=O)Nc1ccc(Cl)cc1 | > 42 µM (inactive)
3 | COc1ccc(NC2CC(=O)N(C(C)C)C2=O)cc1 (stereo unspecified) | > 42 µM (inactive)
4 | CCOc1ccc(CN(C)C(C)C(=O)NCc2ccccc2)cc1 (stereo unspecified) | > 42 µM (inactive)
5 | CCC(CC)C(=O)N1CCCC(c2nc(-c3cccs3)no2)C1 (stereo unspecified) | > 42 µM (inactive)
6 | CC1CCCN(C(=O)Cc2ccc(F)cc2)C1 (stereo unspecified) | > 42 µM (inactive)
7 | COc1ccc(NC(=S)Nc2ccccc2OC)c(OC)c1 | > 42 µM (inactive)
8 | COCCCNCC(O)COc1cccc2[nH]c(C)cc12 (stereo unspecified) | > 42 µM (inactive)
9 | CCOC(=O)c1cc2c(ccn2-c2ccc(F)cc2)n1CC(=O)N1CCN(C(=O)c2ccco2)CC1 | > 42 µM (inactive)
10 | CC1(OC(=O)CCc2ccccc2)C(=O)C=C2C=C(c3ccc(C#N)cc3)N(C3CCCC3)C=C2C1=O (stereo unspecified) | > 42 µM (inactive)
11 | CCOC(=O)c1ccc(NC(=S)NCCCN2CCOCC2)cc1 | > 42 µM (inactive)
12 | CCOC(=O)C1=C[C@]2(CC)CCCN3CCc4c(n1c1ccccc41)[C@@H]32 | > 42 µM (inactive)
13 | CC1CCN(CCNC(=O)C2CCCN(S(=O)(=O)c3cccc4nsnc34)C2)CC1 (stereo unspecified) | > 42 µM (inactive)
14 | O=C(COC(=O)C1COc2ccccc2O1)NC1CCS(=O)(=O)C1 (stereo unspecified) | > 42 µM (inactive)
15 | O=c1c2ccccc2c2ccccc2c(=O)n1-c1ccccc1 | > 42 µM (inactive)
16 | Cc1ccc(S(=O)(=O)N(C)CC(=O)O/N=C(\N)c2ccccn2)cc1 | 40.6 µM
17 | COc1ccc(C2NC(=O)c3ccccc3O2)cc1 (stereo unspecified) | > 42 µM (inactive)
18 | CC(C(=O)Nc1ccccc1-c1ccccc1)N1CCN(Cc2ccccc2)CC1 (stereo unspecified) | > 42 µM (inactive)
19 | Cc1cccc(OCC(O)CN2C(C)(C)CC(O)CC2(C)C)c1 (stereo unspecified) | > 42 µM (inactive)
20 | Cc1c(C2(O)CCCCC2)[nH]c2ccc(C#N)cc12 | > 42 µM (inactive)
21 | O=C(Nc1ccccc1N1CCN(c2ccccc2)CC1)c1cccc(F)c1 | > 42 µM (inactive)
22 | COc1ccc(/C=N/NC(=O)CCC(=O)Nc2ccccc2)cc1OC | > 42 µM (inactive)
23 | CCN1C(=NCC(C)C)N[C@@H](c2cccc(C(F)(F)F)c2)C(C(=O)OC)=C1C | > 42 µM (inactive)
24 | C=C1C2C[C@@]3([C@@H]1O)[C@@H](C[C@@H]2O)[C@@]12C4[C@@H]3C[C@@H]1[C@@](C)(CC[C@@H]2O)CN4CC | > 42 µM (inactive)

Row | Structure (SMILES) | AC50
25 | COc1cc(C(=O)N/N=C/c2ccccn2)cc(OC)c1OC | > 42 µM (inactive)
26 | Cc1cc(C)c[n+](-c2nc3ccccc3nc2[N-]S(=O)(=O)c2ccc(Br)s2)c1 | > 42 µM (inactive)
27 | O=C(Nc1ccccc1)N1CCN(CCc2ccccc2)CC1 | > 42 µM (inactive)
28 | CC(Oc1ccc([N+](=O)[O-])cc1)C(=O)NCCCN1CCOCC1 (stereo unspecified) | > 42 µM (inactive)
29 | CN(CC(=O)N1CCc2[nH]c3ccc(F)cc3c2C1)CC1OCCO1 | > 42 µM (inactive)
30 | CN(C)C1(c2nnnn2-c2ccc(Cl)cc2)CCCCC1 | > 42 µM (inactive)
31 | Cn1cc(C(=O)Cc2ccccc2)c2ccccc21 | > 42 µM (inactive)
32 | COc1ccc(C2CC(c3cccs3)=NN2C(=O)c2ccccc2)cc1OC (stereo unspecified) | > 42 µM (inactive)
33 | O=C(NCc1ccccn1)C1Nc2ccc(C(F)(F)F)cc2C2C=CCC12 (stereo unspecified) | > 42 µM (inactive)
34 | Cn1c(C(=O)NCCc2ccsc2)cc2c(=O)n(C)c3ccccc3c21 | > 42 µM (inactive)
35 | Cc1nnsc1C(=O)N1CCC(CO)(Cc2ccccc2Cl)CC1 | > 42 µM (inactive)
36 | COc1ccc2c(c1)[C@H]1[C@H](CO2)[C@H](c2ccccc2)[C@]2(C)C(=O)Nc3ccc(Br)cc3C(=O)N12 | > 42 µM (inactive)
37 | Cc1ccc(-n2nnnc2SCC#N)cc1 | > 42 µM (inactive)
38 | COc1cccc(-n2nnc3c(=O)n(CC(=O)N4CCCc5ccccc54)cnc32)c1 | > 42 µM (inactive)
39 | CCOc1ccccc1C(=O)NCc1ccc2c(c1)OCO2 | > 42 µM (inactive)
40 | CS(=O)(=O)Nc1ccccc1C(=O)NCCSCc1ccccc1 | > 42 µM (inactive)
41 | O=C(CCn1cnnn1)Nc1ccc(Cl)cc1Cl | > 42 µM (inactive)
42 | CCOc1ccc(CCNC(=O)COC(=O)COc2ccc(C(C)=O)cc2)cc1OCC | > 42 µM (inactive)
43 | COc1ccc(CN2CC(=O)N(c3ccccc3C)C2=S)cc1OC | > 42 µM (inactive)
44 | CC1CCCC(N2C(=O)NC(NC(=O)c3ccco3)(C(F)(F)F)C2=O)C1C (stereo unspecified) | > 42 µM (inactive)
45 | CC(C)NC(=O)CCCc1cn(C)c2ccccc12 | > 42 µM (inactive)
46 | O=C(CS(=O)c1ccc(C(F)(F)F)cc1[N+](=O)[O-])Oc1ccc(Cl)cc1 (stereo unspecified) | > 42 µM (inactive)
47 | CN1CCCCC1=NCCCn1cnc2c1c(=O)n(C)c(=O)n2C | > 42 µM (inactive)
48 | O=C(COC(=O)COc1ccccc1Cl)Nc1ccccc1OC(F)F | > 42 µM (inactive)

Row | Structure (SMILES) | AC50
49 | Cc1cc(C(=O)NNC(=O)c2ccc(C)s2)c(C)o1 | > 42 µM (inactive)
50 | CCC(C)(C)n1nnnc1C(c1ccc(OC)c(OC)c1)N1CCN(c2cccc(OC)c2)CC1 (stereo unspecified) | > 42 µM (inactive)
51 | CN(C(=O)CSc1nnc(-c2cccc(F)c2)n1N)C1CCS(=O)(=O)C1 (stereo unspecified) | > 42 µM (inactive)
52 | CCOC(=O)c1sc2ncnc(N3CCN(c4ccc(OC)cc4)CC3)c2c1C | > 42 µM (inactive)
53 | Cc1nc2c3ccccc3nc(NNC(=O)CCC(=O)N3CCCC(C)C3)n2n1 (stereo unspecified) | > 42 µM (inactive)
54 | CCCn1c(=O)c2ccccc2n2c(SCC(=O)N3CCc4ccccc4C3)nnc12 | > 42 µM (inactive)
55 | COc1ccc(CN(C)S(=O)(=O)c2nnc(NC(=O)c3ccc(C)cc3)s2)cc1OC | > 42 µM (inactive)
56 | CCCC1Cc2c(sc3ncnc(N)c23)CO1 (stereo unspecified) | 9.15 µM
57 | CCCCCCC(C)n1[nH]c(=O)c2c(C)cc(=O)[nH]c21 (stereo unspecified) | > 42 µM (inactive)
58 | CCOC(=O)C1CCCN(C(=O)/C=C/c2ccc(Cl)cc2)C1 (stereo unspecified) | > 42 µM (inactive)
59 | CC(=O)Nc1cccc(C(=O)OCC(=O)NCc2ccc(F)cc2)c1 | > 42 µM (inactive)
60 | CCS(=O)(=O)N1CCC(C(=O)NCCCN2CCN(c3ccccc3F)CC2)CC1 | > 42 µM (inactive)
61 | CN(C)c1ccc(C(=O)N2CCCC(CCC(=O)N3CCN(c4ccccn4)CC3)C2)cc1 (stereo unspecified) | > 42 µM (inactive)
62 | Cc1ccc2nc3c(cc(C(=O)NCCN4CCOCC4)c(=N)n3CCCN3CCOCC3)c(=O)n2c1 | > 42 µM (inactive)
63 | Cc1cccc(N2CCN(CCCNC(=O)c3ccc(NC(=O)C4=CSCCO4)cc3)CC2C)c1 (stereo unspecified) | > 42 µM (inactive)
64 | CCCCN(C/C=C/c1ccccc1OC)Cc1ccccc1 | > 42 µM (inactive)
65 | Cc1cccc(OCCC(=O)Nc2ccc(F)c(F)c2)c1 | > 42 µM (inactive)
66 | NC(=O)c1ccccc1NC(=O)c1ccc2c(c1)OCO2 | > 42 µM (inactive)
67 | Cc1cc(C)c(NC(=O)Cn2c([N+](=O)[O-])cnc2C)c(C)c1 | > 42 µM (inactive)
68 | O=[N+]([O-])c1nn(-c2ccc(Cl)cc2)n(O)c1=NCc1ccccc1Cl | > 42 µM (inactive)
69 | Cc1cc(-c2ccc(Cl)cc2Cl)c(C#N)c(=O)[nH]1 | > 42 µM (inactive)
70 | O=C(Nc1ccccc1N1CCOCC1)c1cc(Br)c(Br)s1 | > 42 µM (inactive)
71 | O=C(c1cc2ccccc2o1)N1CCN(C/C=C/c2ccccc2)CC1 | > 42 µM (inactive)
